{
  "source": "patent US11717580B2",
  "about": "“Cyclodextrin-linked polyvalent ligands for complexation of metal ions” (UTI LIMITED PARTNERSHIP, priority 2018, dated 2023)",
  "key": {"[1]": {"experiment": "Potentiometric titrations of compound 5 with Gd(III) (stability constants and speciation of Gd(III) complexes)", "assay_type": "binding", "excerpt": "Considering the collection of results obtained for the Gd(III)-compound 5, the best chemical model which fits the data corresponds to: (1) mononuclear GdL species for Gd:L ratio lower than 1, (2) binuclear species Gd2L for Gd:L ratio higher than 1 or (3) trinuclear species Gd3L for Gd:L ratio higher than 2.\nThe complexation of compound 5 with Gd(III) was studied by potentiometric titrations. While maintaining the amount of compound 5 (0.5 μmol) and HCl (9.95 μmol) constant within the cell, a solution of GdCl3 was then added to reach a specified ratio. This solution was then titrated with tetramethylammonium hydroxide (NMe4OH). It was noted that with the solution containing the highest Gd:L ratios, the addition of same amount of base caused a slower increase of pH (FIG. 12A). This could be explained by the displacement of protons from the protonated groups during Gd(III) complexation, thus acidifying the medium.\nThe stability constants of the Gd(III) complexes are expressed by the general formula:\n[formula] with M being the metal ion, L the ligand, and H the proton (the charges are omitted), and dissociation constant Kmlh can be defined similarly to the case of free ligand as:\n[formula] [formula] [formula] Analogously, pKmlh=log βmlh−log βmlh-1 (equation 6)\nThe stability constants of the Gd(III) complexes are reported in the Table 2 and distribution curves given in FIGS. 12B, 12C and 12D, respectively for 1:1, 2:1 and 3:1 Gd(III):compound 5 ratios."}, "[2]": {"experiment": "Potentiometric titrations of compound 5 (protonation constants)", "assay_type": "physicochemical", "procedure": "T=298K, [L]=0.0625-1 μmol, [extra-HCl]=0-37.3 μmol in NMe4Cl (0.1 M); total initial volume: 4 mL; burette: [NMe4OH]=0.05 M.\nPotentiometric titrations were performed to study the deprotonation of compound 5 (FIG. 6). The initial solution of compound 5 alone has a pH of ˜8.4; this value correlates well with extensive deprotonation observed in ATR-FTIR spectrum. Therefore, a solution of HCl in trimethylammonium chloride (0.1 M) was gradually added to the solution to obtain a series of solutions with varied HCl/5 ratios (0→597), while maintaining the total volume constant. To each prepared solution, a titrant solution of tetramethylammonium hydroxide (0.05 M) was added while the pH of the solution recorded; this enabled preparation of a series of titration curves (FIG. 7).\nThe protonation constant βh for the following equilibrium is defined by equation 1, where L represents the fully deprotonated form (L^14−) of compound 5 (LH14). H is the proton (charges are omitted).\n[formula] As dissociation constants Ka are commonly defined by:\n[formula] [formula] [formula] it is evident that Ka=log βh−log βh-1 (equation 3)\nTable 1 reports all protonation constants determined by titration curve refinement and the corresponding acidity constants. All pKa values were ascribed to successive deprotonation of the carboxylic acids, followed by ammonium functions."}, "HeLa cells": {"system": "HeLa cells", "experiment": "In vitro cytotoxicity MTT assay, HeLa", "assay_type": "cell-based", "details": "concentrations higher than 1 mM"}, "HepG2 cells": {"system": "HepG2 cells", "experiment": "In vitro cytotoxicity MTT assay, HepG2", "assay_type": "cell-based", "details": "concentrations higher than 1 mM"}, "[3]": {"details": "12 MHz; cited from earlier work"}, "[4]": {"details": "cited from earlier work"}},
  "note": "Read-outs that look alike come from different tables or passages of the source.",
  "data": [
    {"smiles": "O=C(O)CN(CC(=O)O)Cc1cn(C[C@H]2O[C@@H]3O[C@H]4[C@H](O)[C@@H](O)[C@@H](O[C@H]5[C@H](O)[C@@H](O)[C@@H](O[C@H]6[C@H](O)[C@@H](O)[C@@H](O[C@H]7[C@H](O)[C@@H](O)[C@@H](O[C@H]8[C@H](O)[C@@H](O)[C@@H](O[C@H]9[C@H](O)[C@@H](O)[C@@H](O[C@H]2[C@H](O)[C@H]3O)O[C@@H]9Cn2cc(CN(CC(=O)O)CC(=O)O)nn2)O[C@@H]8Cn2cc(CN(CC(=O)O)CC(=O)O)nn2)O[C@@H]7Cn2cc(CN(CC(=O)O)CC(=O)O)nn2)O[C@@H]6Cn2cc(CN(CC(=O)O)CC(=O)O)nn2)O[C@@H]5Cn2cc(CN(CC(=O)O)CC(=O)O)nn2)O[C@@H]4Cn2cc(CN(CC(=O)O)CC(=O)O)nn2)nn1", "note": "[Compound 5]", "values": [
      {"measurement": "log βMLHh", "setting": "[1]; dinuclear species Gd2L (MLH 210)", "value": 36.28},
      {"measurement": "log βGd (210)−log βGd (110)", "setting": "[1]; introduction of second Gd(III) cation", "value": 11.19},
      {"measurement": "log βGd (310)−log βGd (210)", "setting": "[1]; introduction of third Gd(III) cation", "value": 7.63},
      {"measurement": "pH of initial solution", "setting": "[2]; compound 5 alone", "value": "~8.4"},
      {"measurement": "log βLHh", "setting": "[2]; species LH", "value": 8.80},
      {"measurement": "pKa", "setting": "[2]; species LH", "value": 8.80},
      {"measurement": "log βLHh", "setting": "[2]; species LH2", "value": 17.77},
      {"measurement": "pKa", "setting": "[2]; species LH2", "value": 9.08},
      {"measurement": "log βLHh", "setting": "[2]; species LH3", "value": 26.44},
      {"measurement": "pKa", "setting": "[2]; species LH3", "value": 8.56},
      {"measurement": "log βLHh", "setting": "[2]; species LH4", "value": 34.51},
      {"measurement": "pKa", "setting": "[2]; species LH4", "value": 8.07},
      {"measurement": "log βLHh", "setting": "[2]; species LH5", "value": 42.44},
      {"measurement": "pKa", "setting": "[2]; species LH5", "value": "~7.93"},
      {"measurement": "log βLHh", "setting": "[2]; species LH6", "value": 50.03},
      {"measurement": "pKa", "setting": "[2]; species LH6", "value": "~7.59"},
      {"measurement": "log βLHh", "setting": "[2]; species LH7", "value": 56.23},
      {"measurement": "pKa", "setting": "[2]; species LH7", "value": 6.20},
      {"measurement": "log βLHh", "setting": "[2]; species LH8", "value": 61.22},
      {"measurement": "pKa", "setting": "[2]; species LH8", "value": 4.99},
      {"measurement": "log βLHh", "setting": "[2]; species LH9", "value": 64.85},
      {"measurement": "pKa", "setting": "[2]; species LH9", "value": 3.63},
      {"measurement": "log βLHh", "setting": "[2]; species LH10", "value": 67.42},
      {"measurement": "pKa", "setting": "[2]; species LH10", "value": 2.57},
      {"measurement": "pKa", "setting": "[2]; species LH11-LH21", "value": "<2"},
      {"measurement": "cytotoxic effect (inhibition)", "setting": "HeLa cells", "value": "20-40%"},
      {"measurement": "cytotoxic effect (inhibition)", "setting": "HepG2 cells", "value": "20-40%"}
    ]},
    {"smiles": "CO[C@@H]1[C@@H](OC)[C@H]2O[C@H]3[C@H](OC)[C@@H](OC)[C@@H](O[C@H]4[C@H](OC)[C@@H](OC)[C@@H](O[C@H]5[C@H](OC)[C@@H](OC)[C@@H](O[C@H]6[C@H](OC)[C@@H](OC)[C@@H](O[C@H]7[C@H](OC)[C@@H](OC)[C@@H](O[C@H]8[C@H](OC)[C@@H](OC)[C@@H](O[C@@H]1[C@@H](CN(CC(=O)O)CC(=O)O)O2)O[C@@H]8CN(CC(=O)O)CC(=O)O)O[C@@H]7CN(CC(=O)O)CC(=O)O)O[C@@H]6CN(CC(=O)O)CC(=O)O)O[C@@H]5CN(CC(=O)O)CC(=O)O)O[C@@H]4CN(CC(=O)O)CC(=O)O)O[C@@H]3CN(CC(=O)O)CC(=O)O", "note": "[compound 3]", "values": [
      {"measurement": "relaxivity", "setting": "[3]", "value": 8.8, "unit": "mM⁻¹ s⁻¹"}
    ]},
    {"smiles": "CC[N+](CC)(CC)CC", "note": "[triethylammonium]", "values": [
      {"measurement": "pKa", "setting": "[4]", "value": "~10.75"}
    ]}
  ]
}
